In ChEMBL document CHEMBL1201862, “PubChem BioAssay data set” (2004):
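Briefly, cells in 96-well plates were exposed to five compound concentrations for 48 h, and endpoints were estimated by linear interpolation. GI50: concentration for 50% inhibition of growth.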 Active and inactive are the calls of the source. Rule as the data show it: active = GI50 up to about 1.1 µM and inactive = higher.

Legend:
Assay in all cases: NCI tumour cell line growth inhibition, 48 h
SK-OV-3 = system: SK-OV-3
SK-MEL-5 = system: SK-MEL-5
HL-60 = system: HL-60
SF-539 = system: SF-539
UACC-257 = system: UACC-257
TK-10 = system: TK-10
CAKI-1 = system: CAKI-1
NCI/ADR-RES = system: NCI/ADR-RES
LOX IMVI = system: LOX IMVI
BT-549 = system: BT-549
SK-MEL-28 = system: SK-MEL-28
M14 = system: M14
HCT-15 = system: HCT-15
SF-268 = system: SF-268
UO-31 = system: UO-31
A549 = system: A549
RPMI-8226 = system: RPMI-8226
NCI-H522 = system: NCI-H522
OVCAR-5 = system: OVCAR-5
SW-620 = system: SW-620
MDA-MB-231 = system: MDA-MB-231
NCI-H226 = system: NCI-H226
CCRF-CEM = system: CCRF-CEM
MCF7 = system: MCF7
Malme-3M = system: Malme-3M
MDA-N = system: MDA-N
HCT-116 = system: HCT-116
SNB-75 = system: SNB-75
MDA-MB-435 = system: MDA-MB-435
T47D = system: T47D
OVCAR-8 = system: OVCAR-8
K562 = system: K562
U-251 = system: U-251
HOP-92 = system: HOP-92
MOLT-4 = system: MOLT-4
DU-145 = system: DU-145
A498 = system: A498
HOP-62 = system: HOP-62
EKVX = system: EKVX
SR = system: SR
SK-MEL-2 = system: SK-MEL-2
786-0 = system: 786-0
OVCAR-3 = system: OVCAR-3
IGROV-1 = system: IGROV-1
UACC-62 = system: UACC-62
PC-3 = system: PC-3
SF-295 = system: SF-295
SN12C = system: SN12C
NCI-H23 = system: NCI-H23
OVCAR-4 = system: OVCAR-4
Hs-578T = system: Hs-578T
KM12 = system: KM12
COLO 205 = system: COLO 205
HT-29 = system: HT-29
SNB-19 = system: SNB-19
ACHN = system: ACHN
NCI-H460 = system: NCI-H460
RXF 393 = system: RXF 393

C#CCn1c2c(c3ccccc3c1=O)C(=O)c1ccccc1-2
GI50 (SK-OV-3): 27400 nM (inactive)
GI50 (SK-MEL-5): 2370 nM (inactive)
GI50 (HL-60): 2940 nM (inactive)
GI50 (SF-539): 11600 nM (inactive)
GI50 (UACC-257): 32300 nM (inactive)
GI50 (TK-10): 19500 nM (inactive)
GI50 (CAKI-1): 12000 nM (inactive)
GI50 (NCI/ADR-RES): 21500 nM (inactive)
GI50 (LOX IMVI): 18200 nM (inactive)
GI50 (BT-549): 22100 nM (inactive)
GI50 (SK-MEL-28): 26600 nM (inactive)
GI50 (M14): 42800 nM (inactive)
GI50 (HCT-15): 22200 nM
GI50 (SF-268): 14000 nM (inactive)
GI50 (UO-31): 2000 nM (inactive)
GI50 (A549): 13600 nM (inactive)
GI50 (RPMI-8226): 13000 nM (inactive)
GI50 (NCI-H522): 10700 nM (inactive)
GI50 (OVCAR-5): 24700 nM (inactive)
GI50 (SW-620): 23900 nM (inactive)
GI50 (MDA-MB-231): 15200 nM (inactive)
GI50 (NCI-H226): 16700 nM (inactive)
GI50 (CCRF-CEM): > 100000 nM (inactive)
GI50 (MCF7): 9060 nM (inactive)
GI50 (Malme-3M): 25500 nM (inactive)
GI50 (MDA-N): 37700 nM (inactive)
GI50 (HCT-116): 19600 nM (inactive)
GI50 (SNB-75): 13400 nM (inactive)
GI50 (MDA-MB-435): 67300 nM (inactive)
GI50 (T47D): 15800 nM (inactive)
GI50 (OVCAR-8): 19600 nM (inactive)
GI50 (K562): 19000 nM (inactive)
GI50 (U-251): 15200 nM (inactive)
GI50 (HOP-92): 29900 nM (inactive)
GI50 (MOLT-4): 2830 nM (inactive)
GI50 (DU-145): 11700 nM (inactive)
GI50 (A498): 22700 nM (inactive)
GI50 (HOP-62): 11900 nM (inactive)
GI50 (EKVX): 16300 nM (inactive)
GI50 (SR): 4490 nM (inactive)
GI50 (SK-MEL-2): 29900 nM (inactive)
GI50 (786-0): 14000 nM (inactive)
GI50 (OVCAR-3): 14700 nM (inactive)
GI50 (IGROV-1): 15700 nM (inactive)
GI50 (UACC-62): 21400 nM (inactive)
GI50 (PC-3): 11700 nM (inactive)
GI50 (SF-295): 20200 nM (inactive)
GI50 (SN12C): 11400 nM (inactive)
GI50 (NCI-H23): 11400 nM (inactive)
GI50 (OVCAR-4): 11400 nM (inactive)
GI50 (Hs-578T): 15800 nM (inactive)
GI50 (KM12): 10100 nM (inactive)
GI50 (COLO 205): 22400 nM (inactive)
GI50 (HT-29): 10700 nM (inactive)

O=C1C=CC2(O[C@@H](Cc3ccccc3)[C@H](Cc3ccccc3)O2)C(SC(=O)c2ccccc2)C1 (stereo not given in full)
GI50 (SNB-19): 1940 nM (inactive)
GI50 (SK-OV-3): 2750 nM (inactive)
GI50 (SK-MEL-5): 1660 nM (inactive)
GI50 (HL-60): 1180 nM (inactive)
GI50 (SF-539): 1660 nM (inactive)
GI50 (UACC-257): 1180 nM (inactive)
GI50 (TK-10): 1540 nM (inactive)
GI50 (CAKI-1): 1260 nM (inactive)
GI50 (NCI/ADR-RES): 1070 nM (active)
GI50 (LOX IMVI): 380 nM (active)
GI50 (BT-549): 340 nM (active)
GI50 (SK-MEL-28): 1810 nM (inactive)
GI50 (ACHN): 929 nM (active)
GI50 (M14): 1450 nM (inactive)
GI50 (HCT-15): 298 nM
GI50 (SF-268): 904 nM (active)
GI50 (UO-31): 586 nM (active)
GI50 (A549): 4220 nM (inactive)
GI50 (RPMI-8226): 292 nM (active)
GI50 (OVCAR-5): 439 nM (active)
GI50 (SW-620): 231 nM (active)
GI50 (MDA-MB-231): 2520 nM (inactive)
GI50 (NCI-H226): 1520 nM (inactive)
GI50 (CCRF-CEM): 208 nM (active)
GI50 (MCF7): 568 nM (active)
GI50 (Malme-3M): 2070 nM (inactive)
GI50 (MDA-N): 853 nM (active)
GI50 (HCT-116): 158 nM (active)
GI50 (SNB-75): 1910 nM (inactive)
GI50 (MDA-MB-435): 2110 nM (inactive)
GI50 (T47D): 764 nM (active)
GI50 (OVCAR-8): 209 nM (active)
GI50 (K562): 1640 nM (inactive)
GI50 (U-251): 1300 nM (inactive)
GI50 (HOP-92): 1540 nM (inactive)
GI50 (MOLT-4): 190 nM (active)
GI50 (DU-145): 2390 nM (inactive)
GI50 (A498): 4930 nM (inactive)
GI50 (HOP-62): 1110 nM (active)
GI50 (SR): 138 nM (active)
GI50 (SK-MEL-2): 1660 nM (inactive)
GI50 (786-0): 152 nM (active)
GI50 (OVCAR-3): 594 nM (active)
GI50 (IGROV-1): 1260 nM (inactive)
GI50 (UACC-62): 2240 nM (inactive)
GI50 (PC-3): 1530 nM (inactive)
GI50 (SF-295): 1950 nM (inactive)
GI50 (SN12C): 1620 nM (inactive)
GI50 (NCI-H460): 2590 nM (inactive)
GI50 (NCI-H23): 1690 nM (inactive)
GI50 (RXF 393): 84.9 nM (active)
GI50 (OVCAR-4): 1470 nM (inactive)
GI50 (Hs-578T): 1380 nM (inactive)
GI50 (KM12): 2310 nM (inactive)
GI50 (COLO 205): 1730 nM (inactive)
GI50 (HT-29): 1640 nM (inactive)
